Values of other authors as cited in patent US7125702B2, “Process for the preparation of angiotensis converting enzyme (ACE) inhibitors and its use” (Council of Scientific and Industrial Research, priority 2003, dated 2006).
pIC50: −log10 of the molar value.

Assays:
[1] = biological target: angiotensin I-converting enzyme (Homo sapiens, UniProt P12821); conditions: read-out: IC50 (ACE inhibition)
[2] = biological target: angiotensin-converting enzyme (Homo sapiens, UniProt P12821); conditions: read-out: IC50 (ACE inhibition)
angiotensin-converting enzyme, sequence (P12821 30-1306): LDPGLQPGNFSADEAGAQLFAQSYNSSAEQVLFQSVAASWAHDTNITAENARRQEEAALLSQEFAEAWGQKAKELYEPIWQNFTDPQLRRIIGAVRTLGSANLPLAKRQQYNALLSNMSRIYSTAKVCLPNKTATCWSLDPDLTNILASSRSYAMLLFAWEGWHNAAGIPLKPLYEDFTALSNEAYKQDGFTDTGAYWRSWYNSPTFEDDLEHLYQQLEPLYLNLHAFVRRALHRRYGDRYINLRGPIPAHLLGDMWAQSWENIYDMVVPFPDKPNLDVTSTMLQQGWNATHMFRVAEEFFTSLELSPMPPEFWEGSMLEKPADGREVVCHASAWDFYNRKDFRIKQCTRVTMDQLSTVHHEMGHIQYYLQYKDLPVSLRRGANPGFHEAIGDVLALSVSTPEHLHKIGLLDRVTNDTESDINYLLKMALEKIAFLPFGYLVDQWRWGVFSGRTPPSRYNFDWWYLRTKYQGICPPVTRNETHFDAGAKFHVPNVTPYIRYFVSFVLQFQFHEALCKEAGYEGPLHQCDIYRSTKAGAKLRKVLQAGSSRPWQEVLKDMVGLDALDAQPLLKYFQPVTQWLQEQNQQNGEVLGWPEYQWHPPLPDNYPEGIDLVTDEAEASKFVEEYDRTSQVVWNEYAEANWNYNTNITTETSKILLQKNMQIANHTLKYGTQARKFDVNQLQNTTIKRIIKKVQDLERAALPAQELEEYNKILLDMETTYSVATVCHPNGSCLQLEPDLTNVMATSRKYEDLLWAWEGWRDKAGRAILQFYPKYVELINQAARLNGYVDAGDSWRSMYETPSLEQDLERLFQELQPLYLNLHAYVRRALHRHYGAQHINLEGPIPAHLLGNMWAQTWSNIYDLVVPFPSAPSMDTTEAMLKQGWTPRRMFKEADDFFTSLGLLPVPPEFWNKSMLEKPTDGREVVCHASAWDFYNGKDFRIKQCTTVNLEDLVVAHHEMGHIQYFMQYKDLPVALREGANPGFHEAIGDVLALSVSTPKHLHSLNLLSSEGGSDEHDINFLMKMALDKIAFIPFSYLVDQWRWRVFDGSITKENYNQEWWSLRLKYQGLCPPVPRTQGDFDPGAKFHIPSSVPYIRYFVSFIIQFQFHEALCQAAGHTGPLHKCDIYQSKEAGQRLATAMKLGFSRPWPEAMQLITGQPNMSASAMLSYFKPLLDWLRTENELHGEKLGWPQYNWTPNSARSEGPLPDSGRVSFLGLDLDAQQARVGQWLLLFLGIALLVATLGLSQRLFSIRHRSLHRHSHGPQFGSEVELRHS

[3] = test system: spontaneously hypertensive rats; conditions: 30 mg/kg intravenous injection

angiotensin I-converting enzyme, sequence (P12821 30-1306): as above

Row | Substance | pIC50 [1] | pIC50 [2] | other results
1 | His-His-Leu |  |  | pressure in the aorta (blood pressure; synthetic peptide): significant pressure decrease; systolic blood pressure decrease (blood pressure; triple injections of the peptide): 61 mm Hg
2 | Leu-Arg-Pro [tripeptide from thermolysin hydrolysate of α-zein] |  | 6.57 | blood pressure decrease [3]: 15 mm Hg
3 | Leu-Asn-Pro [tripeptide from thermolysin hydrolysate of α-zein] |  | 5.72 | 

Continued, in another order:

Row | pIC50 [1] | pIC50 [2] | Substance | other results
4 | 5.32 |  | Ap-Leu-Pro | 
5 | 4.91 |  | Asp-Gly | 
6 |  | 5.77 | Leu-Ser-Pro [tripeptide from thermolysin hydrolysate of α-zein] | 
